Positions of bridges follow the written chain, without caps; N, C: chain ends. Non-standard residues stand in square brackets, D forms with d. Residues, ends and D or L forms follow the SMILES beside them. S5 = C=CCCC[C@](C)(N)C(=O)O
System: SARS-CoV-2 variants, including Delta, BA.2.75, XBB.1.16, and KP.2
Conditions: BA.2.75, XBB.1.16, and KP.2, 48 h

Row | Structure (SMILES) | IC50
1 | CC[C@H](C)[C@H](NC(=O)[C@H](C)NC(=O)[C@H](CCSC)NC(=O)[C@H](CCC(=O)O)NC(=O)[C@H](CC(=O)O)NC(=O)[C@H](CO)NC(=O)[C@H](CC(C)C)NC(=O)[C@H](CC(=O)O)NC(=O)[C@H](CC(C)C)NC(=O)[C@H](CC(C)C)NC(=O)[C@@H](NC(=O)[C@@H](NC(=O)[C@H](CC(N)=O)NC(=O)[C@@H](NC(=O)[C@H](CCCCN)NC(=O)[C@H](CO)NC(=O)[C@@H](NC(=O)[C@H](CCC(=O)O)NC(C)=O)[C@@H](C)CC)[C@@H](C)CC)C(C)C)[C@@H](C)O)C(=O)N[C@@H](CC(C)C)C(=O)N[C@@H](CC(C)C)C(=O)N[C@@H](CCC(=O)O)C(=O)N[C@@H](C)C(=O)N[C@H](C(=O)N[C@@H](CCCCN)C(=O)N[C@@H](CCC(N)=O)C(=O)N[C@@H](CC(C)C)C(=O)N[C@@H](CC(N)=O)C(=O)N[C@@H](CC(=O)O)C(=O)N[C@@H](CO)C(=O)N[C@@H](Cc1ccc(O)cc1)C(=O)N[C@H](C(=O)N[C@@H](CC(=O)O)C(=O)N[C@@H](CC(C)C)C(=O)N[C@@H](CCCCN)C(=O)N[C@@H](CCC(=O)O)C(=O)N[C@@H](CC(C)C)C(N)=O)[C@@H](C)CC)[C@@H](C)CC [MjHKU4r-HR2P9] | 384 to 460 nM
2 | CC[C@H](C)[C@H](NC(=O)[C@H](C)NC(=O)[C@H](CCSC)NC(=O)[C@H](CCC(=O)O)NC(=O)[C@H](CC(=O)O)NC(=O)[C@H](CO)NC(=O)[C@H](CC(C)C)NC(=O)[C@H](CC(=O)O)NC(=O)[C@H](CC(C)C)NC(=O)[C@H](CC(C)C)NC(=O)[C@@H](NC(=O)[C@@H](NC(=O)[C@H](CC(N)=O)NC(=O)[C@@H](NC(=O)[C@H](CCCCN)NC(=O)[C@H](CO)NC(=O)[C@@H](NC(=O)[C@H](CCC(=O)O)NC(C)=O)[C@@H](C)CC)[C@@H](C)CC)C(C)C)[C@@H](C)O)C(=O)N[C@@H](CC(C)C)C(=O)N[C@@H](CC(C)C)C(=O)N[C@@]1(C)CCCC=CCCC[C@@](C)(C(=O)N[C@@H](CC(C)C)C(=O)N[C@@H](CC(N)=O)C(=O)N[C@@H](CC(=O)O)C(=O)N[C@@H](CO)C(=O)N[C@@H](Cc2ccc(O)cc2)C(=O)N[C@H](C(=O)N[C@@H](CC(=O)O)C(=O)N[C@@H](CC(C)C)C(=O)N[C@@H](CCCCN)C(=O)N[C@@H](CCC(=O)O)C(=O)N[C@@H](CC(C)C)C(N)=O)[C@@H](C)CC)NC(=O)[C@H](CCCCN)NC(=O)[C@H]([C@@H](C)CC)NC(=O)[C@H](C)NC1=O [MjHKU4r-HR2P10] (Ac-EISKINVTLLDLSDEMAILL[S5]AIK[S5]LNDSYIDLKEL-NH2; staple 21-25) | 85.9 to 192 nM

Reference: article PMC12432378 (Cell Reports Medicine, 2025)
